Assay results reported in patent publication US20260315434A1, “USE OF GUAIACOL SESQUITERPENE LACTONE DERIVATIVES” (NANJING UNIVERSITY OF CHINESE MEDICINE, priority 2023, published 2026).

Key:
[1] = system: mouse ear atopic dermatitis; experiment: MC903-induced atopic dermatitis of the ear, ointment: ear thickness, dermatitis score, lesions; format: in vivo; settings: 1% ointment, 7 days; max score 12
Protocol: (1) Preparation of Oil Phase: Weigh white petrolatum, light liquid paraffin, glyceryl monostearate, ethylparaben, and cetyl alcohol. Heat to 65° C. while stirring until dissolved. Slowly add the dissolved active pharmaceutical ingredient (API) while continuing to stir until uniformly mixed. Set aside.
(2) Aqueous Phase Preparation: Weigh purified water and Tween 80, heat to 70° C., stir to dissolve, and set aside;
(3) Emulsification: Slowly add the aqueous phase to the oil phase while maintaining 65° C., homogenize, and continue stirring for 30 min;
(4) Cooling: Stop heating, continue stirring, gradually reduce to room temperature, cool to form an ointment, and fill containers.
(§1) Dissolve these substances in a small amount of propylene glycol, then place the resulting solution into the aforementioned pre-cooled blank ointment base. Finally, add water to make the total mass up to 10 g, and grind the mixture thoroughly in a mortar.
(§2) Except for the Normal group, all other groups underwent AD modeling: 20 μL of MC903 solution (also known as calcipotriol, purchased from Shanghai Yuanye Biotechnology Co., Ltd., used for inducing atopic models) was applied to each mouse's ears once daily for 14 consecutive days to induce the atopic dermatitis model. […] Measure ear thickness changes every 2 days using an electronic caliper before modeling and after treatment initiation.
Skin Lesion Severity Score: Daily skin lesion severity was assessed in mice using the following criteria, primarily encompassing four symptoms: 1) erythema/hemorrhage; 2) dryness; 3) desquamation/erosion; 4) edema. Each symptom was scored from 0 to 3 based on lesion severity: no symptoms=0 points, mild=1 point, moderate=2 points, severe=3 points. […] Higher scores indicated more severe lesions, with a maximum score of 12. Statistical analysis was performed on the data.

[2] = system: inflammatory factors (TNF, IL-6, IL-1) in liver tissue; experiment: LPS-induced sepsis, hepatic inflammatory factor mRNA (Q-PCR); settings: 5 mg/kg
Excerpt: (§3) They were acclimated for 7 days before experimentation.
(§4) The normal and model groups received equal volumes of solvent (0.5% CMC-Na) via oral gavage.
(§5) Specimen Collection: One hour after the final drug administration, mice were euthanized by cervical dislocation. The abdominal cavity was opened, and the lungs, liver, and kidneys were removed. These organs were rinsed twice with pre-chilled PBS. Tissue samples were excised from the mouse lungs, left hepatic lobe, and kidneys. […] Remaining tissues were stored at −70° C. for future use.
(§6) Accurately weigh 20 mg of kidney, lung, and liver tissue. Rinse with pre-chilled PBS solution, cut into small pieces using ophthalmic scissors, and place into a glass homogenizer. Add 1 mL of Trizol reagent and grind to prepare tissue homogenate. Transfer the homogenate to a RNAse-free 1.5 mL EP tube and lyse on ice for 10 min. Add 200 μL chloroform, vortex vigorously, and let stand on ice for 3-5 min. Centrifuge at 12,000 rpm and 4° C. for 15 min. Carefully transfer the supernatant to a new RNAse-free 1.5 mL EP tube. Add an equal volume of pre-chilled isopropanol, incubate on ice for 30 min, then centrifuge at 12,000 rpm and 4° C. for 10 min. Discard the supernatant. […] Subsequently, dissolve the pellet in 10 μL DEPC-treated water. Dilute 1 μL of the total RNA solution 100-fold and measure the OD values at 260 nm and 280 nm using a full-wavelength microplate reader.
(§7) Following the method described in the kit manual, subsequent experiments were conducted using a 20 μL reverse transcription reaction system:
(§8) Primers were designed based on the nucleotide sequence of the mouse in GenBank and synthesized.
(§9) Perform subsequent experiments using a 20 μL reaction system according to the kit instructions:
(§10) After adding the above reagents to micro reaction tubes, seal them with the cap and place them in the Q-PCR instrument. Set the parameters according to the following reaction conditions to perform the amplification experiment.
(§11) Record the threshold cycle (Ct) values for each group and perform calculation and analysis using the 2^−ΔΔCt method (setting the expression level of the reference gene Gapdh as 1 to correct the expression levels of the target genes).
(§12) Data Statistics: All data are presented as Means±S.E.M. Analysis of variance (ANOVA) was performed to assess the significance of differences. Groups showing significant differences in ANOVA were further compared using one-way ANOVA and Dunnett's test. A P-value <0.05 was considered statistically significant.

[3] = system: inflammatory factors (TNF, IL-6, IL-1) in renal tissue; experiment: Lupus nephritis, renal inflammatory factor mRNA; format: in vivo, MRL/lpr mice; settings: 3 mg/kg, oral, 8 weeks
Protocol: Experimental animals: MRI/MpJ and MRL/lpr mice, female, 10 weeks old, purchased from GemPharmatech LLC. Production license number: SCXK(Su)2023-0009. […] They were acclimated for 7 days before use in experiments.
Oral administration was performed continuously for 8 weeks.
Allow blood to stand at room temperature for 2 hours, then centrifuge at 3000 rpm for 20 minutes. Aspirate the serum, aliquot it, and store at −70° C. for future use. After blood collection, euthanize mice by cervical dislocation. Open the abdominal cavity, remove kidneys, and dissect out perirenal fat and capsules. […] Store remaining tissues at −70° C. for future use.

[4] = system: inflammatory cytokines (IL-1β, IL-6) in lung tissue; experiment: LPS-induced acute lung injury, inflammatory cytokines by ELISA; format: in vivo, C57BL/6 mice; settings: 5 mg/kg; LPS 2411.32
Protocol: After a 7-day acclimatization period, mice were used for subsequent experiments.
The abdomen was opened, and the lungs were removed. They were rinsed twice with pre-chilled PBS. […] The remaining tissue was stored at −70° C. for future use.
Data Statistics: All data are expressed as means S.E.M. Statistical differences between groups were analyzed using one-way ANOVA and t-tests in SPSS software. P values less than 0.05 were considered statistically significant.

[5] = system: inflammatory factors (TNF, IL-6, IL-1) in renal tissue; experiment: LPS-induced sepsis, renal inflammatory factor mRNA (Q-PCR); settings: 5 mg/kg
Excerpt: as §3, §4, §5, §6, §7, §8, §9, §10, §11, §12

[6] = system: IgE and inflammatory markers of AD mice; experiment: MC903-induced atopic dermatitis, oral administration: serum IgE and ear mRNA of inflammatory markers; format: in vivo, mouse; design: scale not given here; settings: 5 mg/kg
Protocol: as §2

[7] = system: inflammatory markers in the ears of AD mice; experiment: MC903-induced atopic dermatitis of the ear, ointment: mRNA of inflammatory markers; format: in vivo, mouse; settings: 1% ointment
Protocol: as §1, §2

[8] = system: inflammatory cytokines (TNF, IL-6, IL-1) in lung tissue; experiment: LPS-induced sepsis, lung inflammatory factor mRNA (Q-PCR); settings: 5 mg/kg
Excerpt: as §3, §4, §5, §6, §7, §8, §9, §10, §11, §12

C[C@@H]1C[C@H]2[C@@H]3CCC4=CC(=O)C=C[C@]4(C)[C@@]3(F)[C@@H](O)C[C@]2(C)[C@@]1(O)C(=O)CO [Dex, Dexamethasone, reference compound]
Dermatitis Score, ear [1]: 3.50 ± 0.22 | Il6 mRNA expression, liver ([2]; LPS 11.34): 4.27 ± 1.33 | Il1 mRNA expression, liver ([2]; LPS 11.52): 7.54 ± 0.70 | Il1 mRNA expression, kidney [3]: 3.47 ± 0.35 | Il6 mRNA expression, kidney [3]: 1.12 ± 0.24 | Tnf mRNA expression, kidney [3]: 1.94 ± 0.30 | IL-1β [4]: 1873.00 ± 86.52 pg/mL | Il1 mRNA expression, kidney ([5]; LPS 7.99): 6.05 ± 1.03 | Il6 mRNA expression, kidney ([5]; LPS 8.80): 5.76 ± 0.72 | I14 mRNA expression, ear [6]: 2.59 ± 0.38 | I113 mRNA expression, ear [6]: 1.89 ± 0.20 | I131 mRNA expression, ear [6]: 2.06 ± 0.20 | I14 mRNA expression, ear [7]: 1.35 ± 0.30 | I113 mRNA expression, ear [7]: 1.91 ± 0.39 | I131 mRNA expression, ear [7]: 1.86 ± 0.44 | Il1 mRNA expression, ear [7]: 12.69 ± 4.22 | TSLP mRNA expression, ear [7]: 1.30 ± 0.17 | Il1 mRNA expression, lung ([8]; LPS 19.01): 7.20 ± 0.36 | Il6 mRNA expression, lung ([8]; LPS 20.34): 9.88 ± 0.80
